Data published in patent publication US5023322A, “Analogs of growth hormone releasing factor (GRF) and a method for the preparation thereof” (MTA Kutatas-es Szervezetelemzo Intezete, priority 1988, dated 1991).
No end group written: not given here.

What was measured:
growth hormone release [1] = test: plasma GH level in anaesthetized rats after intravenous administration; format: in vivo, Wistar Amsterdam rats; settings: for Plasma GH level: i.v.
Method: (§1) The biological effects of the compounds according to the invention were tested under in vitro and in vivo conditions. In both instances the growth hormone release was measured as a function of the concentration of the compound administered. The amount of growth hormone released was detected by radioimmune assay with a reliability limit of 95%. The results obtained were compared to those obtained when administering native hpGRF or hGRF(1-29)--NH2, respectively.
(§2) Mature male Wistar Amsterdam rats, weighing 250-300 g, were anaesthetized intraperitoneally with 60 mg/kg of pentobarbital. The peptides to be tested were dissolved in 0.9% by weight aqueous saline solution, and were administered to the animals 20 minutes after anaesthesy as an intravenous (i.v.), intramuscular (i.m.) or subcutaneous (s.c.) injection. Blood samples were taken from the jugular vein of the animals prior to the administration of the active agent (-1 minute) and 5, 15 and 30 minutes after challenge. The amount of growth hormone released was measured by radioimmune assay.
Therefore, when the compounds were administered intravenously, the percentage increase in activity was calculated by relating the amount of growth hormone released upon administering a compound of the invention to the amount of growth hormone released upon administering hGRF(1-29)--NH2.

growth hormone release [2] = test: plasma GH level in anaesthetized rats after intramuscular administration; format: in vivo, Wistar Amsterdam rats; settings: administered intramuscularly, in the doses tested
Method: as §1, §2
(§3) Therefore, in these tests the activity of the compounds according to the invention was characterized by the percentage increase in the plasma growth hormone level related to that originally present in the plasma (basal value).

growth hormone release [3] = test: plasma GH level in anaesthetized rats after subcutaneous administration; format: in vivo, Wistar Amsterdam rats; settings: administered subcutaneously, in the doses tested
Method: as §1, §2, §3

[4] = literature; cited from earlier work
milk production = settings: cattle; J. Dairy Science 70, 2511 (1987) and 71, 92 (1988); cited from earlier work

hGRF(1-29)--NH2 (YADAIFTNSYRKVLGQLSARKLLQDIMSR-NH2; UniProt P01286 32-60, looked up, fragment) [Standard, fragment of the native human peptide amide extending from the N-terminal through residue 29; applied as standard]
release of growth hormone (in words) (growth hormone release [1]; administered intravenously): stimulated the release of growth hormone | Plasma GH level (growth hormone release [1]; 0.8 μg/kg, +5 min): 311.00 ng/mL | Plasma GH level (growth hormone release [1]; 0.8 μg/kg, +15 min): 93.60 ng/mL | Plasma GH level (growth hormone release [1]; 0.8 μg/kg, +30 min): 48.73 ng/mL | Plasma GH level (growth hormone release [1]; 0.8 μg/kg, -1 min (before administration)): 80.46 ng/mL | Plasma GH level (growth hormone release [1]; 2 μg/kg, +5 min): 1061.11 ng/mL | Plasma GH level (growth hormone release [1]; 2 μg/kg, +15 min): 393.13 ng/mL | Plasma GH level (growth hormone release [1]; 2 μg/kg, +30 min): 109.22 ng/mL | Plasma GH level (growth hormone release [1]; 2 μg/kg, -1 min (before administration)): 125.22 ng/mL | activity on growth hormone release (in words) (growth hormone release [2]): practically inactive | activity on growth hormone release (in words) (growth hormone release [3]): practically inactive | biological activity compared to the native hGRF(1-44)--NH2 (in words) [4]: favourable activity | milk production of cattles, quality and quantity (in words) (milk production): influenced favourably

human GRF(1-44)--NH2 (YADAIFTNSYRKVLGQLSARKLLQDIMSRQQGESNQERGARARL-NH2; UniProt P01286 32-75, looked up) [native human GRF, a peptide amide of 44 residues]
milk production of cattles, quality and quantity (in words) (milk production): influenced favourably
